Results as given in US10961216B2, “Small molecule modulators of the androgen receptor” (Massachusetts Institute of Technology, priority 2017, dated 2021).

Assays:
PC3 (AR-) cell lines = assay: cell proliferation, PC3; format: cell-based; conditions: 72 hours
22Rv1 (AR+) cell lines = assay: cell proliferation, 22Rv1; format: cell-based; conditions: 72 hours
VCaP (AR+) cell lines = assay: cell proliferation, VCaP; format: cell-based; conditions: 72 hours
prostate cancer cell = prostate cancer cell proliferation, different cancer cell lines; format: cell-based; conditions: 72 hours
LNCaP (AR+) cell lines = assay: cell proliferation, LNCaP; format: cell-based, human; conditions: 72 hours
DU-145 (AR-) cell lines = assay: cell proliferation, DU-145; format: cell-based; conditions: 72 hours
AR-v7 = target: T1, AR-v7 (Homo sapiens, UniProt P10275); assay: small molecule microarray (SMM) screen, binding to AR-v7; conditions: SMM screened against AR-truncate of NTD and DBD (exons 1-3), with qPCR and reporter assays
T1 construct: screened against a functional AR-truncate composed of the NTD and DBD (exons 1-3)
T1 sequence (P10275 1-628 limits assumed): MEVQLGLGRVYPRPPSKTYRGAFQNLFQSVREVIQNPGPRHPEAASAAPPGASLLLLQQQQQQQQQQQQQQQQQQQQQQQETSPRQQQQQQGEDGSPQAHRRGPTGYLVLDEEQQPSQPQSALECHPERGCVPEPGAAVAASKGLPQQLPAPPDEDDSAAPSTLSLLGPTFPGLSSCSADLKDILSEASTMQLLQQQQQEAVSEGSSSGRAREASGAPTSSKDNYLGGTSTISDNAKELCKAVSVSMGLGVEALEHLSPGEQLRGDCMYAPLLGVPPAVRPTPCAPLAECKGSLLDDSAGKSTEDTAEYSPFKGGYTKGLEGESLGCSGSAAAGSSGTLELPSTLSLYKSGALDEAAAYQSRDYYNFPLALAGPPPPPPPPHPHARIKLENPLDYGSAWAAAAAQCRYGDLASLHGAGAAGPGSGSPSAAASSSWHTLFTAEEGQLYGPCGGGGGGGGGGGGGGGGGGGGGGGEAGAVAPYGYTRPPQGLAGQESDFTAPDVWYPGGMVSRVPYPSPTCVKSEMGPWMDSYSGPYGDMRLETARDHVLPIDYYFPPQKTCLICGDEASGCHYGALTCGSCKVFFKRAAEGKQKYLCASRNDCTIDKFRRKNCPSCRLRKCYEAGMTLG
Source text: (§1) To meet this need, compounds binding to AR-v7 were identified using the combination of a small molecule microarray (SMM) screen of 50,000 compounds, qPCR, and reporter assays. The SMM was screened against a functional AR-truncate composed of the NTD and DBD (exons 1-3) and therefore targeting these domains specifically. Candidate compounds were further evaluated in a series of assays designed to show specificity to AR-sensitive cell lines.

LNCaP = LNCaP reporter assay; format: cell-based; conditions: Homo sapiens
Source text: as §1
Compounds of the invention may also be identified via a reporter assay. Reporter assays are commonly used to study signaling pathways, gene expression and regulation at the transcriptional level, and the structure of regulatory elements. In general, a reporter assay comprises a regulatory element of interest (e.g. promoter DNA) along with a reporter gene (e.g., gene encoding a reporter protein) cloned into a vector and transfected into cells. In certain embodiments, a reporter is a protein. In certain embodiments, a reporter is a protein with an easily measureable activity. “Easily measureable activity” (or simply “activity”) can refer to any activity that can be measured through methods known in the art, such as fluorescence, enzymatic activities that generate fluorescent or luminescent products, or indirectly with antibodies. […]

aggregation monitoring = format: physicochemical; conditions: at IC50 in RPMI, DMSO, or PBS
Protocol: All compounds were evaluated in a reporter gene assay (22Rv1 cell line lentiviral transduced with CMV-firefly luciferase) to monitor transcriptional effects and two cell viability assays (Cell-titer blue; PC3 cell line, an AR insensitive cell line, and LNCaP cell line, an AR sensitive cell line). The compounds were also monitored for aggregation.

- binding to AR-v7 (AR-v7): found to bind to AR-v7
- IC50 (LNCaP): 5.43 µM
- formation of aggregates (aggregation monitoring): does not form aggregates
Compound: O=C(NCCC1C[C@@H]2C=C[C@H]1C2)c1cccc(OC2CCN(C(=O)C3CC3)CC2)c1 (stereo partly drawn) [Compound (1), N-(2-((1S,4S)-bicyclo[2.2.1]hept-5-en-2-yl)ethyl)-3-((1-(cyclopropanecarbonyl)piperidin-4-yl)oxy)benzamide]
- cell proliferation (percent confluence) (PC3 (AR-) cell lines): stagnates prostate cancer cell proliferation
- cell proliferation (percent confluence) (22Rv1 (AR+) cell lines): stagnates prostate cancer cell proliferation
- cell proliferation (percent confluence) (VCaP (AR+) cell lines): stagnates prostate cancer cell proliferation
- prostate cancer cell proliferation (relative proliferation, percent confluence) (prostate cancer cell): stagnates prostate cancer cell proliferation
- cell proliferation (percent confluence) (LNCaP (AR+) cell lines): stagnates prostate cancer cell proliferation
- cell proliferation (percent confluence) (DU-145 (AR-) cell lines): stagnates prostate cancer cell proliferation
